The text below walks through data of US20160199436A1, “METHODS AND COMPOSITIONS FOR THE TREATMENT OF AMYOTROPHIC LATERAL SCLEROSIS” (University of Iowa Research Foudation, priority 2015, published 2016).

“Also recorded” adds a separate entry of the source.

For assay [1], the system named is SOD1 mice. As to the kind of experiment: Survival of SOD1 mice (ALS model), Kaplan Meier. It is filed as in vivo, mouse. From the text:
(§1) In this Example, SOD1 mice, a known and accepted model of amyotrophic lateral sclerosis (ALS), were used to assess the effects of angiotensin (1-7) peptides, here TXA127 (SEQ ID NO: 1), on survival and quality of life over time. The SOD1 mouse line are known to contain a G93A mutation in their superoxide dismutase 1 (SOD1) gene, and this mutation leads to a phenotype very similar to the phenotype of a human ALS sufferer.
(§2) A total of 70 mice were used in this study, 40 SOD1 mice and 30 wild type C57BL/6J mice (all were obtained from the Jackson Laboratories). Mice were three weeks old at the beginning of the study, and osmotic minipumps were implanted in each animal. After implantation, each animal was exposed to either 500 μg/kg/day TXA127 (SEQ ID NO: 1) or saline vehicle for up to 8 weeks. After 8 weeks, surviving mice received a daily injection of either 500 μg/kg TXA127 (SEQ ID NO: 1) or vehicle.

The subject of assay [2] is SOD1 mice. As to the kind of experiment: ALS score (disease progression/quality of life) in SOD1 mice. Type of assay: in vivo, mouse.
Text: as §1, §2
In addition to survival, disease progression/quality of life was measured over time using the rating scale described above. […] FIG. 3 further describes this effect, by showing the percentage of animals in each SOD1 group that were rated as having an ALS score of 2 or less over time.

Setting [3] is: 500 μg/kg/day TXA127 vs SOD1-vehicle, up to 30 weeks.

Consider “Asp^1-Arg^2-Val^3-Tyr^4-Ile^5-His^6-Pro^7 [TXA127]”, for which, in the assay with SOD1 mice [1] (500 μg/kg/day TXA127), the “effect on survival (in words)” value is recorded as “powerful survival benefit; also recorded: significant effect on survival” and the “extension of life (median) versus vehicle treated SOD1 mice” value is given as 30 days. In the assay on SOD1 mice [1] (500 μg/kg/day TXA127 by osmotic minipump up to 8 weeks, then daily injection), this substance showed a median survival of 164 days. Besides, in the assay on SOD1 mice [2] (500 μg/kg/day TXA127), the “disease progression (summary in words)” value is “delays disease progression”. Besides, in the assay with SOD1 mice [2] (setting [3]), the “percentage of animals with an ALS score of 2 or less over time (FIG. 3)” value is given as “clearly delayed the worsening of symptoms, often by several weeks” and the “sum of ALS scores over time (FIG. 2)” value was “significantly delaying worsening of symptoms”.
